From ChEMBL document CHEMBL3507680, “University of Dundee, Gates Library screen for HepG2 cell viability”

Assay: Human HepG2 cell viability assay in 384 well format
Assay type: toxicity, cell-based
Parameters: dose 125 nL, time 70.5 hour; cytotoxicity at 70.5 h: concentration not given beside the values
Details: HepG2 cells, read-out: Inhibition

SMILES | cytotoxicity at 70.5 h [%]
COCc1c(Cl)cccc1NC(=O)CNC(=O)C(C)(C)C | -4.66
CC(=O)N1CCC2(CC1)COC(COCc1ccccn1)C2 (stereo not drawn) | -1.84
O=C(O)C1c2nc[nH]c2CCN1Cc1ccccc1-c1ccccc1 (stereo not drawn) | -3.54
CC[C@H]1COCCN1C(=O)c1cnc(N2CCN(C)CC2)nc1C | -8.1
O=c1c(Cc2ccccc2)c(O)ccn1CCc1ccccc1 | -3.9
CC[C@@H](CO)NC(=O)c1cccc(CCC(C)(C)O)c1 | -6.14
CCc1cc(-c2cc[nH]n2)nc(N2CCOCC2)n1 | 15.6
CS(=O)(=O)CC(=O)N1C[C@H]2CCC[C@@]2(COc2ccccn2)C1 | 12.7
O=C(NCCn1ccnc1)c1cncc(Br)c1 | 19.8
CCc1nnc2n1CCN(Cc1ncc(-c3ccc(Cl)cc3)o1)C2 | -7.58
Cc1ncsc1CN1C[C@H]2CC[C@@H]1CN(Cc1ccccc1)C2 | 30
CCc1nc(C(=O)N(CC)CC(=O)N(C)C)nn1-c1ccccc1Cl | -2.5
Cc1cc(CN2CCCC(C)(CO)C2)ccc1F (stereo not drawn) | -6.61
O=C(NCC1CCOCC1)[C@H]1C[C@@H]2CCN(Cc3ccccc3)C[C@H]2O1 | -7.17
CC(C)CC(=O)N1CCCn2cnc(CNS(C)(=O)=O)c2C1 | 2.43
O=C1NCCN1C1CCN(Cc2coc(-c3ccccc3)n2)CC1 | 20.6
Fc1ccc(C2(c3noc(CCN4CCCCO4)n3)CCOC2)cc1 (stereo not drawn) | -11.7
COc1cccc(COCC(=O)N2CCN(CC(C)(C)O)CC2)c1 | 4.32
CC(C)NC(=O)C1CCC2(CCN(Cc3cnn(C)c3)CC2)CO1 (stereo not drawn) | -17
O=S(=O)(Cc1ccccc1Cl)NC(CO)c1ccco1 (stereo not drawn) | -6.59
CC(Cn1cccn1)NCc1cccc(C#N)c1 (stereo not drawn) | -3.1
N#Cc1cccc(OCC(=O)N(Cc2ccsc2)C2CC2)c1 | -12
Cn1ccc(C(=O)N2CCOC(c3ccccc3)C2)cc1=O (stereo not drawn) | -7.42

SMILES | cytotoxicity at 70.5 h [%]
CCCN1CCCn2c(nc(CNC(=O)c3nccn3C)cc2=O)C1 | -9.48
O=C(c1ccc(Cl)o1)N1CCCC(c2cc(C(F)(F)F)[nH]n2)C1 (stereo not drawn) | -3.16
CN(C)S(=O)(=O)N1CCCC(CCC(=O)Nc2ccc(Cl)cc2)C1 (stereo not drawn) | 42.2
CC(NC(=O)CNCCn1cccn1)c1ccc2c(c1)CCCC2 (stereo not drawn) | -4.4
Cc1cccc(-n2cnc(Cl)c2CO)c1 | -0.946
Cc1nnc(CN(Cc2ccccc2C(F)(F)F)C2CC2)o1 | -10.9
COCCC(=O)N1C[C@H]2CCC[C@@]2(COC)C1 | -6.36
CC(C)N1CCc2c(C#N)c(NCc3ccco3)n3cnnc3c2C1 | -10.3
Cn1ncc2c1C(COCC1CC1)CN(S(C)(=O)=O)C2 (stereo not drawn) | -9.85
COc1ccccc1Oc1cncc(C2CCCN(C)C2)n1 (stereo not drawn) | -5.97
CCN1C(=O)CCC12CCCN(S(=O)(=O)c1cccc(C)c1)CC2 (stereo not drawn) | -2.78
Cc1cccc(C(C(=O)NCc2cc(C)[nH]n2)N(C)C)c1 (stereo not drawn) | 7.18
CCOc1ccc(CN(CCC#N)CCN2CCOCC2)cc1OC | -0.151
Cc1cc(C)nc(N2CCC(c3noc(C)n3)CC2)n1 | -7.52
CC(C)c1nnc(N2C[C@@H]3CC[C@H](C2)N(CC2CCC2)C3)s1 | -2.56
CCN(CC)C(=O)Cn1ccc2cc(NC(=O)C3CCCCC3)ccc21 | 14.5
CCc1c(C)sc2ncnc(N3CC[C@@H](N4CCOCC4)[C@H](O)C3)c12 | -4.12
CCS(=O)(=O)NC[C@]12COC[C@H]1CN(CCc1ccccc1)C2 | -5.39
COc1ccc(OC)c(CN2CCCCCC2c2cccs2)c1 (stereo not drawn) | 31.6
CC(=O)N1CCN([C@@H]2CN(C(=O)Cc3ccccc3C)C[C@H]2O)CC1 | -2.44
O=C(c1ccc(O)c(Cl)c1)N1CCN(c2nccs2)CC1 | -9.18
COc1ccc(CCNC(=O)C2CCC(Cn3cnnn3)CC2)cc1 (stereo not drawn) | -2.47
CN(C)C1CCCN(Cc2cccc(Cn3cccn3)c2)CC1 (stereo not drawn) | -1.58

SMILES | cytotoxicity at 70.5 h [%]
CN(C)C(CNC(=O)NCCc1cccc(O)c1)c1ccco1 (stereo not drawn) | -5.87
COc1ccc(OC(F)F)c(NCC(=O)NCC(=O)N2CCCC2)c1 | -7.93
OC(COCc1cccs1)CN1CCC(c2ccn[nH]2)CC1 (stereo not drawn) | -17.6
CC(C)(C)c1cc(C(=O)N2CCC(c3cnccn3)CC2)[nH]n1 | -5.82
CC(=O)Nc1c(C)noc1/C=C\c1ccc(S(=O)(=O)N2CCCC2)cc1 | -3.48
Cc1ccc(CN2CCN(c3nc4c(s3)c(C)nn4C)C(C)C2=O)cc1 (stereo not drawn) | 31.2
CN1CCN(CCNC(=O)C(OC2CCCC2)c2ccccc2)CC1 (stereo not drawn) | 5.3
CC(=O)N1CCCC1c1nc(C)no1 (stereo not drawn) | 15.6
CSCC(=O)N1CCc2c(cnc(C)c2-c2noc(-c3ccco3)n2)C1 | -17
CCN(CC)C(=O)[C@@H]1C[C@@H](NC(=O)c2cccn2C2CC2)CN1C | -7.5
CN(C)C(=O)COCc1cncc2c1CCN(C1CCOCC1)C2 | -7.93
CC1COc2ccccc2N1C(=O)c1cscn1 (stereo not drawn) | -9.82
C[C@@H]1CN(C(=O)CCc2cnn(C)c2)C[C@@]1(O)C1CCC1 | -5.7
OCC1CCCN1c1cc(NCc2cccnc2)ncn1 (stereo not drawn) | -1.41
CC(=O)N1CC2(CCNCC2)c2cc(Cl)ccc21 | -6.66
Cc1nc(CC(=O)N2CCc3nc(-c4cnccn4)nc(O)c3C2)cs1 | 12.3
Cc1cn2c(n1)CCC(NS(=O)(=O)c1ccc(C)s1)C2 (stereo not drawn) | -1.48
Cn1cnc2c(N3CCCC3)nc(C3CCN(CC4CC4)CC3)cc21 | -0.352
Cc1cccc(N(C)S(=O)(=O)c2cc(C(=O)O)cs2)c1C | -5.76
CCS(=O)(=O)c1ncc(CN2CCCC2)n1CCc1ccccc1 | -12.5
O=C(c1cnc(-c2ccccn2)s1)N1CCCC1Cn1cccn1 (stereo not drawn) | -8.6
c1ncc(CN2CC(Cc3nccc4cc[nH]c34)C2)cn1 | -1.22
CC(C)CCNC(=O)c1ccc(-n2cnc3ccccc3c2=O)cc1 | -27.3

SMILES | cytotoxicity at 70.5 h [%]
Cc1cc(C(=O)N2CCN(c3nc4c(C)cccc4s3)CC2)no1 | 9.18
Cc1ccccc1OCCCC(=O)NC(C)c1nnc2n1CCC2 (stereo not drawn) | -2.09
CC(C)C(N)CNS(=O)(=O)Cc1cccc2cccnc12 (stereo not drawn) | -7.49
O=C(Nc1ccc2c(c1)OCCO2)N1CCCC1c1ccco1 (stereo not drawn) | -10.5
COCCn1ccc(NC(=O)Nc2cccc(C#N)c2)n1 | -9.39
COc1ccc(C)cc1CC(=O)N1CC[C@@]2(CCCO2)[C@@H](O)C1 | -5.66
COc1cccc2c1OCC(C(=O)NCc1nc3c(s1)CCCC3)C2 (stereo not drawn) | 21.6
CCC(=O)c1ccc(OCC(=O)NC(C)c2nnc(C)[nH]2)cc1 (stereo not drawn) | -3.79
Cc1nc(CN2CCC(c3cc(N4CCCC4)ncn3)CC2)cs1 | 4.68
N#CC1(NC(=O)c2ccc(-c3nc(C4CC4)n[nH]3)cc2)CCC1 | -16.7
Cc1ccc(N2C[C@@H]3CN(C(=O)NC4CCCC4)C[C@]3(C(=O)O)C2)nn1 | 2.02
CCC(NCc1ccccc1Cl)c1ccccc1OCC(=O)NC (stereo not drawn) | -3.07
CCc1cnc(CN(C)C(=O)Nc2cnn(CC3CCCO3)c2)s1 (stereo not drawn) | -4.76
CN1CCOC(CNCc2cnc(C(C)(C)C)s2)C1 (stereo not drawn) | 0.446
O=C(N[C@H]1CN[C@H]2CCCO[C@H]21)c1cccnc1 | -10.1
CN(CC1(CO)CC1)C(=O)C1CCC(=O)N(Cc2ccc(Cl)cc2)C1 (stereo not drawn) | -1.51
COCC(C)NC(=O)CN1CCC(C)CC1 (stereo not drawn) | -20.8
CC(C)Cc1cc(C(=O)N2CCCC(n3cncn3)C2)[nH]n1 (stereo not drawn) | -7.4
CC(Cn1cccn1)NCc1csc(Cc2ccccc2)n1 (stereo not drawn) | 0.563
Cc1ccc(-n2nnnc2C2(NCc3ccco3)CCCC2)cc1 | -13.6
Cc1cccc(C)c1OCCNC(=O)C[S+]([O-])C1CCCC1 (stereo not drawn) | -5.72
O=C(NC1CCOCC1)C1CC(=O)N(Cc2ccccn2)C1 (stereo not drawn) | -2.88
CC1CN(CC(=O)Nc2ccncc2)CCN1c1nccs1 (stereo not drawn) | -2.52

SMILES | cytotoxicity at 70.5 h [%]
Cn1ccc2c(NC(=O)Cn3ncc4c(c3=O)CCCC4)cccc21 | 6.85
COCCN1C(=O)CO[C@@H]2CN(S(=O)(=O)c3ccccc3)C[C@H]21 | 5.06
Cc1ccc(OCCN2CCC(c3nc(C)n4c(C)csc34)CC2)cc1 | 3.59
FC(F)(F)c1ccnc(N2C[C@H]3CCN(c4cccnc4)C[C@H]3C2)n1 | -17.5
c1ccc(CO[C@H]2CC[C@H]3[C@H]2OCCN3Cc2nccs2)nc1 | 1.15
O=C(O)c1ccnc(SCc2ccccc2)c1 | 32.7
CCN(CC)c1ccc(CNC(=O)c2ccc(=O)[nH]n2)cn1 | -13.1
CN(C)CC1CSCCCN1C(=O)c1ccc(C(C)(C)C)cc1 (stereo not drawn) | -0.949
CS(=O)(=O)CCCN1CCSCC1c1ccc(Cl)cc1 (stereo not drawn) | -9.37
O=C(Cn1[nH]c2ccccc2c1=O)N1CCCC(CC2CC2)(C(=O)O)C1 (stereo not drawn) | -7.99
COCC1CCCN(C(=O)c2ccc(NC(=O)CC(C)C)c(C)c2)C1 (stereo not drawn) | -17.4
O=C(COCc1ccccc1)N1CCCC(OCc2cccnc2)C1 (stereo not drawn) | 15.5
Cc1cccn2c(CC(=O)N3CCC(Oc4ncccn4)CC3)cnc12 | 25.3
CC(=O)Nc1ccc2nc(-c3nccn3C[C@@H]3CCCO3)ccc2c1 | -11.8
CCN(Cc1c(F)cccc1F)Cn1nc(C)c2c(C)onc2c1=O | 2.01
COCCn1cc(C(=O)NCCS(N)(=O)=O)c2ccccc21 | -7.1
O=C(NC1CCCC1)c1ccc(COCC(F)(F)F)o1 | -0.375
O=C(CN(Cc1cccc(F)c1)CC1CCCO1)N1CCCC1 (stereo not drawn) | 13.7
Cc1ccc(-c2nc(CC(=O)N3CCN(c4cnccn4)CC3)cs2)o1 | -4.05
CCc1noc(C2CCCCN2C(=O)c2cccnc2)n1 (stereo not drawn) | -6.76
Cc1noc2ncc(C(=O)N3CCCC3c3cnn(C)c3)cc12 (stereo not drawn) | -6.59
